Measurements taken from PMC8793051 (ACS Omega, 2022).

How the values were obtained:
HCC-2998 = assay: NCI-60 SRB growth assay; format: cell-based, human
SW-620 = assay: NCI-60 SRB growth assay; format: cell-based, human
NCI-H23 = assay: NCI-60 SRB growth assay; format: cell-based, human
SF-268 = assay: NCI-60 SRB growth assay; format: cell-based, human
RXF 393 = assay: NCI-60 SRB growth assay; format: cell-based, human
NIH3T3 = assay: MTT cytotoxicity assay; format: cell-based; settings: Mus musculus, NIH3T3, 48 h
OVCAR-3 = assay: NCI-60 SRB growth assay; format: cell-based, human
K-562 = assay: NCI-60 SRB growth assay; format: cell-based, human
SK-MEL-28 = assay: NCI-60 SRB growth assay; format: cell-based, human
[1] = test system: oligo-2: d(CGATGTACATCG)2; assay: UV thermal denaturation; format: binding
786-0 = assay: NCI-60 SRB growth assay; format: cell-based, human
NCI-H460 = assay: NCI-60 SRB growth assay; format: cell-based, human
IGROV1 = assay: NCI-60 SRB growth assay; format: cell-based, human
HOP-92 = assay: NCI-60 SRB growth assay; format: cell-based, human
SR = assay: NCI-60 SRB growth assay; format: cell-based, human; settings: Homo sapiens
SK-MEL-5 = assay: NCI-60 SRB growth assay; format: cell-based, human
MOLT-4 = assay: NCI-60 SRB growth assay; format: cell-based, human
SF-295 = assay: NCI-60 SRB growth assay; format: cell-based, human
MALME-3M = assay: NCI-60 SRB growth assay; format: cell-based, human
T-47D = assay: NCI-60 SRB growth assay; format: cell-based, human
NCI/ADR-RES = assay: NCI-60 SRB growth assay; format: cell-based, human
HL-60(TB) = assay: cells; settings: Homo sapiens
CCRF-CEM = assay: NCI-60 SRB growth assay; format: cell-based, human
MDA-MB-435 = assay: NCI-60 SRB growth assay; format: cell-based, human
M14 = assay: NCI-60 SRB growth assay; format: cell-based, human
HEK = assay: MTT cytotoxicity assay; format: cell-based; settings: Homo sapiens, HEK293, 48 h
OVCAR-4 = assay: NCI-60 SRB growth assay; format: cell-based, human
MDA-MB-231/ATCC = assay: NCI-60 SRB growth assay; format: cell-based, human
ACHN = assay: NCI-60 SRB growth assay; format: cell-based, human
[2] = test system: oligo-2: d(CGATGTACATCG)2; assay: Fluorescence titration; format: binding; settings: 20 °C, pH 7.2
UO-31 = assay: NCI-60 SRB growth assay; format: cell-based, human
SN12C = assay: NCI-60 SRB growth assay; format: cell-based, human
U251 = assay: NCI-60 SRB growth assay; format: cell-based, human

With `CCCN1CCN(c2ccc3[nH]c(-c4ccc5[nH]c(-c6ccc(OCC)c(OCC)c6)nc5c4)nc3c2)CC1` [11a, 2-(2-(3,4-Diethoxyphenyl)-1H-benzo[d]imidazol-5-yl)-5-(4-propylpiperazin-1-yl)-1H-benzo[d]imidazole] the TGI (HCC-2998; HCC-2998) was 2.62 µM, the GI50 (HCC-2998; Homo sapiens, HCC 2998) was 1.24 µM and the CC50 (HCC-2998; Homo sapiens, HCC 2998, read-out: LC50) was 5.5 µM. It also gave a GI50 (SW-620; Homo sapiens, SW-620) of 0.3 µM, a CC50 (SW-620; Homo sapiens, SW-620, read-out: LC50) of 4.3 µM and a TGI (SW-620; SW620) of 1.2 µM. For the same molecule, the GI50 (NCI-H23; Homo sapiens, NCI-H23) was 0.25 µM, the CC50 (NCI-H23; Homo sapiens, NCI-H23, read-out: LC50) was 4.24 µM and the TGI (NCI-H23; NCI–H23) was 0.7 µM. For the same molecule, the GI50 (SF-268; Homo sapiens, SF-268) was 1.9 µM, the CC50 (SF-268; Homo sapiens, SF-268, read-out: LC50) was 68.8 µM and the TGI (SF-268; SF-268) was 11.5 µM. It also gave a GI50 (RXF 393; Homo sapiens, RXF 393) of 0.26 µM, a CC50 (RXF 393; Homo sapiens, RXF 393, read-out: LC50) of 3.6 µM and a TGI (RXF 393; RXF393) of 0.9 µM. The IC50 (NIH3T3) was 2.3 µM, the GI50 (OVCAR-3; Homo sapiens, OVCAR-3) was 0.26 µM and the CC50 (OVCAR-3; Homo sapiens, OVCAR-3, read-out: LC50) was 1.8 µM. For the same molecule, the TGI (OVCAR-3; OVCAR-3) was 0.58 µM, the GI50 (K-562; Homo sapiens, K562) was 0.31 µM and the TGI (K-562; K-562) was 1.5 µM. The GI50 (SK-MEL-28; Homo sapiens, SK-MEL-28) was 0.91 µM, the CC50 (SK-MEL-28; Homo sapiens, SK-MEL-28, read-out: LC50) was 5.2 µM and the TGI (SK-MEL-28; SK-MEL-28) was 2.2 µM. It also gave a Tm ([1]; r = 0.5, oligo 2.5 μM) of 57.9 °C, a Tm ([1]; r = 1) of 58.9 °C and a ΔTm ([1]; r = 1) of 2 °C. The Tm ([1]; r = 1.5) was 58.9 °C, the ΔTm ([1]; r = 1.5) was 2 °C and the ΔTm ([1]; r = 2.0) was 2 °C. It also gave a TGI (786-0; 786–0) of 2.50 µM, a GI50 (786-0; Homo sapiens, 786-0) of 1.13 µM and a CC50 (786-0; Homo sapiens, 786-0, read-out: LC50) of 5.54 µM. It also gave a GI50 (NCI-H460; Homo sapiens, NCI-H460) of 0.43 µM, a CC50 (NCI-H460; Homo sapiens, NCI-H460, read-out: LC50) of 4.38 µM and a TGI (NCI-H460; NCI–H460) of 1.51 µM. It also gave a GI50 (IGROV1; Homo sapiens, IGROV-1) of 0.76 µM, a CC50 (IGROV1; Homo sapiens, IGROV-1, read-out: LC50) of 37.8 µM and a TGI (IGROV1; IGROV1) of 4.1 µM. It also gave a TGI (HOP-92; HOP-92) of 4.5 µM, a GI50 (HOP-92; Homo sapiens, HOP-92) of 1.2 µM and a CC50 (HOP-92; Homo sapiens, HOP-92, read-out: LC50) of 26.3 µM. For the same molecule, the GI50 (SR) was 0.29 µM, the CC50 (SR; read-out: LC50) was > 100 µM and the GI50 (SK-MEL-5; Homo sapiens, SK-MEL-5) was 0.63 µM. It also gave a CC50 (SK-MEL-5; Homo sapiens, SK-MEL-5, read-out: LC50) of 4.6 µM, a TGI (SK-MEL-5; SK-MEL-5) of 2.01 µM and a GI50 (MOLT-4; Homo sapiens, MOLT-4) of 0.59 µM. The CC50 (MOLT-4; Homo sapiens, MOLT-4, read-out: LC50) was > 100 µM, the TGI (MOLT-4; MOLT-4) was 4.4 µM and the GI50 (SF-295; Homo sapiens, SF-295) was 0.5 µM. The CC50 (SF-295; Homo sapiens, SF-295, read-out: LC50) was 7.8 µM, the TGI (SF-295; SF-265) was 2.3 µM and the GI50 (MALME-3M; Homo sapiens, Malme-3M) was 0.08 µM. For the same molecule, the CC50 (MALME-3M; Homo sapiens, Malme-3M, read-out: LC50) was 3.9 µM, the TGI (MALME-3M; MALME-3M) was 1.2 µM and the GI50 (T-47D; Homo sapiens, T47D) was 0.91 µM. For the same molecule, the CC50 (T-47D; Homo sapiens, T47D, read-out: LC50) was > 100 µM, the TGI (T-47D; T-47D) was 9.11 µM and the TGI (NCI/ADR-RES) was >100 µM. The GI50 (NCI/ADR-RES; Homo sapiens) was > 100 µM, the CC50 (NCI/ADR-RES; Homo sapiens, read-out: LC50) was > 100 µM and the GI50 (HL-60(TB); HL-60) was 0.37 µM. For the same molecule, the CC50 (HL-60(TB); HL-60, read-out: LC50) was > 100 µM, the TGI (CCRF-CEM) was 3.6 µM and the GI50 (CCRF-CEM; Homo sapiens) was 0.4 µM. For the same molecule, the CC50 (CCRF-CEM; Homo sapiens, read-out: LC50) was > 100 µM, the GI50 (MDA-MB-435; Homo sapiens, MDA-MB-435) was 0.67 µM and the CC50 (MDA-MB-435; Homo sapiens, MDA-MB-435, read-out: LC50) was 4.5 µM. For the same molecule, the TGI (MDA-MB-435; MDA-MB-435) was 1.9 µM, the GI50 (M14; Homo sapiens, M14) was 0.25 µM and the CC50 (M14; Homo sapiens, M14, read-out: LC50) was 5 µM. It also gave a TGI (M14; M14) of 1.5 µM, an IC50 (HEK) of 14.4 µM and a GI50 (OVCAR-4; Homo sapiens, OVCAR-4) of 0.69 µM. It also gave a CC50 (OVCAR-4; Homo sapiens, OVCAR-4, read-out: LC50) of 9.5 µM, a TGI (OVCAR-4; OVCAR-4) of 2.8 µM and a GI50 (MDA-MB-231/ATCC; Homo sapiens, MDA-MB-231) of 1.38 µM. It also gave a CC50 (MDA-MB-231/ATCC; Homo sapiens, MDA-MB-231, read-out: LC50) of 6.78 µM, a TGI (MDA-MB-231/ATCC; MDA-MB-231) of 3.06 µM and a TGI (ACHN) of 2.1 µM. The GI50 (ACHN; Homo sapiens) was 0.82 µM, the CC50 (ACHN; Homo sapiens, read-out: LC50) was 4.77 µM and the “Ka binding affinity with oligo-2” value [2] was 5 × 10^6 M^1. It also gave a GI50 (UO-31; Homo sapiens, UO-31) of 1.67 µM, a CC50 (UO-31; Homo sapiens, UO-31, read-out: LC50) of 8.76 µM and a TGI (UO-31; UO-31) of 3.82 µM. For the same molecule, the GI50 (SN12C; Homo sapiens, SN12C) was 0.45 µM, the CC50 (SN12C; Homo sapiens, SN12C, read-out: LC50) was 6.75 µM and the TGI (SN12C; SN12c) was 2.06 µM. The GI50 (U251; Homo sapiens, U-251) was 0.42 µM, the CC50 (U251; Homo sapiens, U-251, read-out: LC50) was 4.8 µM and the TGI (U251; U251) was 1.8 µM.
